Data taken from patent US11629171B2, “Beta-hairpin peptidomimetics” (POLYPHOR AG, priority 2017, dated 2023).
Values after ≈ are worked out from the molar mass of the structure shown. Where a SMILES comes first, the peptide text is derived from it. Bridges are numbered along the chain shown (N, C = ends). Roman numbers before positions name the chains, in order. [ ]: non-standard residue; d: D form. Pen = CC(C)(S)[C@H](N)C(=O)O; Tle = CC(C)(C)[C@H](N)C(=O)O; Hiv = CC(C)[C@H](O)C(=O)O; dDab = NCC[C@@H](N)C(=O)O; Dab = NCC[C@H](N)C(=O)O; Abu = CC[C@H](N)C(=O)O; Dap = NC[C@H](N)C(=O)O

What was measured:
[1] = system: human red blood cells (hRBC); assay: Hemolysis; assay type: cell-based; settings: red cells of human, 1 h, 200
Procedure, shortened: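 Hemoglobin release from PBS-washed hRBC at 20% (v/v), incubated 1 h at 37° C with peptides at 200 μg/mL, is measured at 540 nm. Values are blank corrected and given as a fraction of Triton X-100 lysis × 100%.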

male ICR mice = assay: Tolerability in a mouse model (Maximum Tolerated Dose assay); assay type: in vivo; settings: groups of 3
Procedure, shortened: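 Groups of 3 male ICR mice weighing 23±3 g received two subcutaneous doses, 12 h apart, of 30 or 40 mg/kg in saline adjusted to pH 6.5-7.6. Observation for 30 min after each dose covered autonomic effects and acute toxicity, including death.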

[2] = system: Klebsiella pneumoniae SSI #3010; assay type: cell-based; settings: SSI #3010
Procedure, shortened: (§1)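 MIC in μg/mL, read as no visible growth after 18-20 hours at 35° C. Peptides were serially diluted two-fold in MH-II broth plus P-80 (0.002% final, v/v) and inoculated at about 10^6 CFU/mL following the CLSI broth microdilution standard.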

Escherichia coli 926415 = assay type: cell-based; settings: 926415
Procedure, shortened: as §1

[3] = system: Pseudomonas aeruginosa ATCC 27853; assay type: cell-based; settings: ATCC 27853
Procedure, shortened: as §1

[4] = system: Enterobacter cloacae 848840; assay type: cell-based; settings: 848840
Procedure, shortened: as §1

[5] = system: Klebsiella pneumoniae 968733; assay type: cell-based; settings: 968733
Procedure, shortened: as §1

[6] = system: Acinetobacter baumannii 872842; assay type: cell-based; settings: 872842
Procedure, shortened: as §1

[7] = system: Acinetobacter baumannii DSM 30008; assay type: cell-based; settings: DSM 30008
Procedure, shortened: as §1

[8] = system: Escherichia coli ATCC 25922; assay type: cell-based; settings: ATCC 25922
Procedure, shortened: as §1

[9] = 2 × 30 mg/kg s.c. at a 12-hr interval

Structure (SMILES) | Hemolysis at 200 μg/mL [1] | Mortality and dose (male ICR mice; [9]) | MIC [2] | MIC (Escherichia coli 926415) | MIC [3] | MIC [4] | MIC [5] | MIC [6] | MIC [7] | MIC [8] | Mortality and dose (male ICR mice; 2 × 40 mg/kg s.c. at a 12-hr interval)
CC[C@@H]1NC(=O)[C@@H](CC(C)C)NC(=O)[C@H](CCN)NC(=O)[C@@H](NC(=O)[C@H](CN)NC(=O)[C@@H](NC(=O)[C@H](CCN)NC(=O)CC[C@@H]2NC(=O)[C@H](CO)NC(=O)[C@H](Cc3ccc(O)cc3)NC(=O)[C@@H](NC(=O)[C@@H](NC(C)=O)C(C)C)CSSC[C@@H](C(=O)N[C@@H](CO)C(N)=O)NC(=O)[C@H]([C@@H](C)CC)NC(=O)[C@H](CO)NC(=O)[C@H](Cc3c[nH]c4ccccc34)NC(=O)[C@H](CO)NC(=O)[C@@H](CCN)NC2=O)[C@@H](C)O)CCNC(=O)[C@H]([C@@H](C)O)NC(=O)[C@H](CCN)NC(=O)[C@H](CCN)NC1=O [Ex. 260] (I: Ac-VCYSE[dDab]SWSICS-NH2 / II: [Dab]T[Dap][Dab][Dab][dL][Abu][Dab][Dab]T; disulfide I:2-I:11; amide I:5-II:N; lactam II:4-II:C) | <1% | 0/3 died at 2 × 30 mg/kg | 0.0625 µg/mL (≈ 0.0264 µM) | 0.5 µg/mL (≈ 0.211 µM) | 0.0625 µg/mL (≈ 0.0264 µM) | 0.0625 µg/mL (≈ 0.0264 µM) | 0.5 µg/mL (≈ 0.211 µM) | 0.0625 µg/mL (≈ 0.0264 µM) | 0.01562 µg/mL (≈ 0.00659 µM) | 0.01562 µg/mL (≈ 0.00659 µM) | –
CC(=O)N[C@H](C(=O)N[C@H]1CSSC[C@@H](C(=O)N[C@@H](CO)C(N)=O)NC(=O)[C@H](C(C)(C)C)NC(=O)[C@H](CO)NC(=O)[C@H](Cc2c[nH]c3ccccc23)NC(=O)[C@H](CCN)NC(=O)[C@@H](CCN)NC(=O)[C@H](CCC(=O)N[C@@H](CCN)C(=O)N[C@H](C(=O)N[C@@H](CN)C(=O)N[C@H]2CCNC(=O)[C@H]([C@@H](C)O)NC(=O)[C@H](CCN)NC(=O)[C@H](CCN)NC(=O)[C@H]([C@@H](C)O)NC(=O)[C@@H](CC(C)C)NC(=O)[C@H](CCN)NC2=O)[C@@H](C)O)NC(=O)[C@H](CO)NC(=O)[C@H](Cc2ccc(O)cc2)NC1=O)C(C)C [Ex. 261] (I: Ac-VCYSE[dDab][Dab]WS[Tle]CS-NH2 / II: [Dab]T[Dap][Dab][Dab][dL]T[Dab][Dab]T; disulfide I:2-I:11; amide I:5-II:N; lactam II:4-II:C) | 1% | 0/3 died at 2 × 30 mg/kg | 0.0625 µg/mL (≈ 0.026 µM) | 0.125 µg/mL (≈ 0.0521 µM) | 0.125 µg/mL (≈ 0.0521 µM) | 0.125 µg/mL (≈ 0.0521 µM) | 0.25 µg/mL (≈ 0.104 µM) | 0.0625 µg/mL (≈ 0.026 µM) | 0.03125 µg/mL (≈ 0.013 µM) | 0.03125 µg/mL (≈ 0.013 µM) | –
CC[C@@H]1NC(=O)[C@@H](CC(C)C)NC(=O)[C@H](CCN)NC(=O)[C@@H](NC(=O)[C@H](CN)NC(=O)[C@@H](NC(=O)[C@H](CCN)NC(=O)CC[C@@H]2NC(=O)[C@@H](NC(=O)[C@H](Cc3ccc(O)cc3)NC(=O)[C@@H](NC(=O)[C@@H](NC(C)=O)C(C)C)[C@@H](C)O)CSSC(C)(C)[C@@H](C(=O)N[C@H](C(=O)N[C@H](C(=O)N[C@H](C(N)=O)[C@@H](C)O)[C@@H](C)O)C(C)C)NC(=O)[C@H](Cc3c[nH]c4ccccc34)NC(=O)[C@H](CCN)NC(=O)[C@@H](CCN)NC2=O)[C@@H](C)O)CCNC(=O)[C@H]([C@@H](C)O)NC(=O)[C@H](CCN)NC(=O)[C@H](CCN)NC1=O [Ex. 266] (I: Ac-VTYCE[dDab][Dab]W[Pen]VTT-NH2 / II: [Dab]T[Dap][Dab][Dab][dL][Abu][Dab][Dab]T; disulfide I:4-I:9; amide I:5-II:N; lactam II:4-II:C) | 1% | 0/3 died at 2 × 30 mg/kg | 0.0625 µg/mL (≈ 0.0256 µM) | 0.5 µg/mL (≈ 0.205 µM) | 0.125 µg/mL (≈ 0.0512 µM) | 0.25 µg/mL (≈ 0.102 µM) | 1 µg/mL (≈ 0.41 µM) | 0.5 µg/mL (≈ 0.205 µM) | 0.0625 µg/mL (≈ 0.0256 µM) | 0.03125 µg/mL (≈ 0.0128 µM) | –
CC(C)C[C@@H]1NC(=O)[C@@H](CC(C)C)NC(=O)[C@H](CCN)NC(=O)[C@@H](NC(=O)[C@H](CN)NC(=O)[C@@H](NC(=O)[C@H](CCN)NC(=O)CC[C@@H]2NC(=O)[C@H](CO)NC(=O)[C@H](Cc3ccc(O)cc3)NC(=O)[C@@H](NC(=O)[C@@H](O)C(C)C)CSSC[C@@H](C(=O)N[C@@H](CO)C(N)=O)NC(=O)[C@H](C(C)C)NC(=O)[C@H](CO)NC(=O)[C@H](Cc3c[nH]c4ccccc34)NC(=O)[C@H](CCN)NC(=O)[C@@H](CCN)NC2=O)[C@@H](C)O)CCNC(=O)[C@H]([C@@H](C)O)NC(=O)[C@H](CCN)NC(=O)[C@H](CCN)NC1=O [Ex. 270] (I: H-[Hiv]CYSE[dDab][Dab]WSVCS-NH2 / II: [Dab]T[Dap][Dab][Dab][dL]L[Dab][Dab]T; disulfide I:2-I:11; amide I:5-II:N; lactam II:4-II:C) | <1% | – | 0.0625 µg/mL (≈ 0.0265 µM) | 0.125 µg/mL (≈ 0.053 µM) | 0.125 µg/mL (≈ 0.053 µM) | 0.25 µg/mL (≈ 0.106 µM) | 0.125 µg/mL (≈ 0.053 µM) | 0.0625 µg/mL (≈ 0.0265 µM) | 0.0625 µg/mL (≈ 0.0265 µM) | 0.0625 µg/mL (≈ 0.0265 µM) | 0/3 died at 2 × 40 mg/kg
